From US20180116224A1, “PESTICIDAL COMPOSITIONS AND RELATED METHODS” (priority 2015, published 2018)

System: green peach aphid (Myzus persicae)
Test: pesticidal activity against green peach aphid on cabbage plants after soil treatment
Format: in vivo
Conditions: for number of live GPA aphids: 6.25 ppm loading, no soil conditioner
Procedure: Each tested compositions was prepared by mixing a predetermined amount of the CLOSER® SC insecticide (a sulfoxaflor concentrate having a sulfoxaflor concentration of 240 g/L) with a predetermined amount of the organic soil conditioner ACCELL®-STR in an aqueous medium.
The compositions containing different amounts of sulfoxaflor and the organic soil conditioner ACCELL®-STR were prepared as shown in TABLE 1. For example, the “Sulfoxaflor at 6.25 ppm” composition contained about 0.003% weight of sulfoxaflor based on total weight of the composition (i.e., 6.25 ppm of sulfoxaflor per one gram of final soil mixture). “Sulfoxaflor at 6.25 ppm+ACCELL®-STR at 384 ppm” composition contained about 0.003% weight of sulfoxaflor based on total weight of the composition (i.e., 6.25 ppm of sulfoxaflor per one gram of final soil mixture), and about 0.225% weight of the organic soil conditioner ACCELL®-STR based on total weight of the composition (i.e., 384 ppm per one gram of the final soil mixture; 1500 ppm per one gram of the total soil liquid).
The imidacloprid pesticide PROVADO® 1.6 from Bayer CropScience LP (North Carolina, USA) was used as a standard commercial pesticidal composition for aphid control. The imidacloprid pesticide PROVADO® 1.6 was tested at the same loading as that used for the sulfoxaflor, which was 6.25 ppm per gram of final soil mixture.
In this EXAMPLE 4, water was tested as a control composition. Furthermore, an aqueous solution of the organic soil conditioner ACCELL®-STR was tested.
Cabbage plants (Brassica oleracea capitata L) of uniform size (two new leaf stage) infested with green peach aphids (Myzus persicae) (“GPA”) were used as the study models according to the following procedure:
Cabbage seeds were planted in 3-inch pots containing a peat-based METRO MIX 360® potting soil available from SUN GRO® Horticulture Canada, Ltd. The seeds were propagated in greenhouse zone G4, located in the R&D building of Dow AgroSciences (Indianapolis, Ind., USA), at 26° C. with a relative humidity of 53%. Natural light was supplemented with 1,000-watt metal halide overhead lamps with an average illumination of about 500 μE/m^2.s photosynthetic active radiation for 16 consecutive hours each day.
Each of the 1-ounce clear cups was filled with about 30 grams of the inoculated Midwest field soil having the components as shown in TABLE 2. […] The soil moisture of the Midwest field soil was about 15% as measured by Mettler LJ16 Moisture Analyzer (15 minutes and 100° C.).
The Midwest field soil in each selected 1-ounce cup was treated with about 9 mL of the selected composition using a 10 mL pipette. […]
The pesticidal activity against GPA was determined three days after infestation, by counting the number of live GPA aphids present on each cabbage plant. […]

[1] = dose rate 6.25 ppm sulfoxaflor alone

C[C@@H](c1ccc(C(F)(F)F)nc1)[S@](C)(=O)=NC#N (racemic) [Sulfoxaflor, [methyl(oxo){1-[6-(trifluoromethyl)-3-pyridyl]ethyl}-λ^6-sulfanylidene]cyanamide]
number of live GPA aphids (DAT of 21 days, counted three days after infestation): about 10
number of live GPA aphids (DAT of 28 days): about 90
% Control at DAT of 21 days [1]: 91.19%
% Control at DAT of 28 days [1]: 0%
